{"source": "paper PMC9304124", "about": "(Clinical Pharmacology in Drug Development, 2022)", "key": {"[1]": {"test": "Steady-state plasma PK of NE and EE, NE/EE given alone or with trametinib (phase 1 DDI study)", "conditions": "for AUC(0-t): AUClast; for AUC: AUCtau"}, "[2]": {"conditions": "basis for study design, no reference given; cited from earlier work"}, "phospho‐MEK1": {"tested_on": "phospho‐MEK1", "set-up": "method as in PMID 23971497", "conditions": "in vitro; read-out: half maximal inhibitory concentration to inhibit phospho‐MEK1; cited from earlier work"}, "[3]": {"set-up": "method as in PMID 23971497", "conditions": "human plasma; cited from earlier work"}, "clinical": {"test": "clinical", "conditions": "female, human, plasma, oral"}, "CYP3A4 [4]": {"tested_on": "CYP3A4", "set-up": "method as in PMID 24748562", "conditions": "in vitro; read-out: EC50 for CYP3A4 mRNA induction; cited from earlier work"}, "UGT1A1": {"tested_on": "UGT1A1", "set-up": "method as in PMID 26347206, PMID 31445021", "conditions": "in vitro; cited from earlier work"}, "CYP3A4 [5]": {"tested_on": "CYP3A4", "conditions": "in vitro, cited from earlier work"}, "[6]": {"conditions": "overall study, N = 19"}, "[7]": {"test": "Steady-state plasma PK of trametinib and metabolite M5 when coadministered with NE/EE", "conditions": "trametinib 2 mg daily + NE/EE, day 21, plasma", "experimental": "Both regimens were continued until day 21 (Figure 1).\nExtracts were analyzed using LC‐MS/MS."}, "CYP3A4 [8]": {"tested_on": "CYP3A4", "set-up": "method as in PMID 26347206, PMID 31445021", "conditions": "in vitro; cited from earlier work"}, "CYP2D6": {"tested_on": "CYP2D6", "set-up": "method as in PMID 26347206, PMID 31445021", "conditions": "in vitro; cited from earlier work"}, "CYP2B6": {"tested_on": "CYP2B6", "set-up": "method as in PMID 26347206, PMID 31445021", "conditions": "in vitro; cited from earlier work"}, "CYP1A2": {"tested_on": "CYP1A2", "set-up": "method as in PMID 26347206, PMID 31445021", "conditions": "in vitro; cited from earlier work"}, "[9]": {"set-up": "method as in Novartis, unpublished data", "conditions": "ref Novartis, unpublished data; cited from earlier work"}, "[10]": {"conditions": "cited from earlier work"}, "CYP2A6": {"tested_on": "CYP2A6", "set-up": "method as in PMID 26347206, PMID 31445021", "conditions": "in vitro; cited from earlier work"}, "[11]": {"conditions": "female, human, plasma, oral, adjusted geo‐mean, NE/EE + T, linear mixed-effects model"}, "[12]": {"conditions": "female, human, plasma, oral, adjusted geo‐mean, NE/EE alone, linear mixed-effects model"}, "[13]": {"conditions": "female, human, plasma, oral, geo‐mean (geo‐CV%), NE/EE alone, day 5, plasma"}, "[14]": {"conditions": "female, human, plasma, oral, mean (SD), NE/EE alone, day 5, plasma"}}, "note": "Like-named read-outs stand apart in the source and are kept apart here.", "data": [{"smiles": "C#C[C@]1(O)CC[C@H]2[C@@H]3CCc4cc(O)ccc4[C@H]3CC[C@@]21C", "note": "[EE, ethinyl estradiol]", "values": [{"measurement": "Ctrough, mean (SD)", "setting": "[1]; NE/EE alone, day 5, plasma", "value": "22.2 (12.6) pg/mL"}, {"measurement": "AUCtau, adjusted geo‐mean", "setting": "[1]; NE/EE alone, linear mixed-effects model", "value": 1.06, "unit": "ng·h/mL"}, {"measurement": "AUC(0-t)", "setting": "[1]; [11]", "value": 1.07, "unit": "ng·h/mL"}, {"measurement": "AUC(0-t)", "setting": "[1]; [12]", "value": 1.02, "unit": "ng·h/mL"}, {"measurement": "AUC(0-t)", "setting": "[1]; [13]", "value": 0.983, "unit": "ng·h/mL"}, {"measurement": "AUC(0-t)", "setting": "[1]; [14]", "value": 1.15, "unit": "ng·h/mL"}, {"measurement": "AUC", "setting": "[1]; [11]", "value": 1.12, "unit": "ng·h/mL"}, {"measurement": "AUC", "setting": "[1]; female, human, plasma, oral, geo‐mean (geo‐CV%), NE/EE alone (1 mg NE/0.035 mg EE daily), day 5, plasma", "value": 1.02, "unit": "ng·h/mL"}, {"measurement": "AUC", "setting": "[1]; [14]", "value": 1.16, "unit": "ng·h/mL"}, {"measurement": "Cmax", "setting": "[1]; [11]", "value": 0.128, "unit": "ng/mL"}, {"measurement": "Cmax", "setting": "[1]; [12]", "value": 0.14, "unit": "ng/mL"}, {"measurement": "Cmax", "setting": "[1]; [13]", "value": 0.135, "unit": "ng/mL"}, {"measurement": "Cmax", "setting": "[1]; [14]", "value": 0.151, "unit": "ng/mL"}, {"measurement": "Tmax", "setting": "[1]; female, human, plasma, oral, tmax, median (range), NE/EE alone, day 5, plasma", "value": 0.98, "unit": "h"}, {"measurement": "mean t1/2", "setting": "[2]", "value": 20, "unit": "h"}]}, {"smiles": "Cc1c(=O)n(C)c(Nc2ccc(I)cc2F)c2c(=O)n(C3CC3)c(=O)n(-c3cccc(N)c3)c12", "note": "[M5]", "values": [{"measurement": "IC50", "setting": "phospho‐MEK1", "value": "9 ± 1", "unit": "nM"}, {"measurement": "share of drug‐related material in plasma", "setting": "[3]", "value": "< 11", "unit": "%"}]}, {"smiles": "C#C[C@]1(O)CC[C@H]2[C@@H]3CCC4=CC(=O)CC[C@@H]4[C@H]3CC[C@@]21C", "note": "[NE, norethindrone]", "values": [{"measurement": "Tmax", "setting": "clinical", "value": 1.02, "unit": "h"}, {"measurement": "half-life", "setting": "clinical", "value": 9.06, "unit": "h"}, {"measurement": "CL/F, geo‐mean (geo‐CV%)", "setting": "[1]; NE/EE alone, day 5, plasma", "value": "9.41 (76.9) L/h"}, {"measurement": "Ctrough, geo‐mean (geo‐CV%)", "setting": "[1]; NE/EE alone, day 5, plasma", "value": "1060 (165.5) pg/mL"}, {"measurement": "Ctrough, mean (SD)", "setting": "[1]; NE/EE alone, day 5, plasma", "value": "1940 (2850) pg/mL"}, {"measurement": "tmax, median (range)", "setting": "[1]; NE/EE alone, day 5, plasma", "value": "1.00 (0.50‐24) h"}, {"measurement": "AUC(0-t)", "setting": "[1]; [11]", "value": 127, "unit": "ng·h/mL"}, {"measurement": "AUC(0-t)", "setting": "[1]; [12]", "value": 106, "unit": "ng·h/mL"}, {"measurement": "AUC", "setting": "[1]; [11]", "value": 131, "unit": "ng·h/mL"}, {"measurement": "AUC", "setting": "[1]; [12]", "value": 110, "unit": "ng·h/mL"}, {"measurement": "Cmax", "setting": "[1]; [11]", "value": 17.1, "unit": "ng/mL"}, {"measurement": "Cmax", "setting": "[1]; [12]", "value": 15.2, "unit": "ng/mL"}, {"measurement": "half-life", "setting": "[1]; female, human, plasma, oral, t½, median (range), NE/EE alone, day 5, plasma", "value": 9.22, "unit": "h"}]}, {"smiles": "CC(C)(C)c1nc(-c2cccc(NS(=O)(=O)c3c(F)cccc3F)c2F)c(-c2ccnc(N)n2)s1", "note": "[dabrafenib]", "values": [{"measurement": "EC50", "setting": "CYP3A4 [4]", "value": "[…]"}]}, {"smiles": "CC(=O)Nc1cccc(-n2c(=O)n(C3CC3)c(=O)c3c(Nc4ccc(I)cc4F)n(C)c(=O)c(C)c32)c1", "note": "[trametinib, Trametinib]", "values": [{"measurement": "UGT1A1 inhibition (in words)", "setting": "UGT1A1", "value": "inhibitor"}, {"measurement": "maximal effect of CYP3A4 induction, % of that of rifampicin", "setting": "CYP3A4 [5]; hepatocytes, ref Novartis, unpublished data", "value": 69, "unit": "%"}, {"measurement": "EC50", "setting": "CYP3A4 [5]; hepatocytes, ref Novartis, unpublished data, read-out: EC50 for CYP3A4 induction", "value": 1700, "unit": "nM"}, {"measurement": "CYP3A4 induction (in words)", "setting": "CYP3A4 [5]", "value": "low‐level inducer"}, {"measurement": "AE of special interest: patients with bleeding events", "setting": "[6]", "value": 15.8, "unit": "%"}, {"measurement": "AE of special interest: patients with cardiac‐related event", "setting": "[6]", "value": 5.3, "unit": "%"}, {"measurement": "AE of special interest: patients with hepatic disorders", "setting": "[6]", "value": 26.3, "unit": "%"}, {"measurement": "AE of special interest: patients with hypertension", "setting": "[6]", "value": 15.8, "unit": "%"}, {"measurement": "AE of special interest: patients with skin toxicity", "setting": "[6]", "value": 63.2, "unit": "%"}, {"measurement": "Cmax, geo‐mean (geo‐CV%)", "setting": "[7]", "value": "27.4 (35.4) ng/mL"}, {"measurement": "CYP3A4 inhibition (in words)", "setting": "CYP3A4 [8]", "value": "no inhibitory activity"}, {"measurement": "CYP2D6 inhibition (in words)", "setting": "CYP2D6", "value": "no inhibitory activity"}, {"measurement": "CYP2B6 inhibition (in words)", "setting": "CYP2B6", "value": "no inhibitory activity"}, {"measurement": "CYP1A2 inhibition (in words)", "setting": "CYP1A2", "value": "no inhibitory activity"}, {"measurement": "IC50", "setting": "phospho‐MEK1", "value": "7 ± 0.1", "unit": "nM"}, {"measurement": "findings in animal reproduction studies (in words)", "setting": "[9]", "value": "maternal and developmental toxicities"}, {"measurement": "peak:trough ratio", "setting": "[10]; 2 mg once daily", "value": 1.8}, {"measurement": "time to reach Cmax (tmax)", "setting": "[10]; 2 mg once daily", "value": 1.5, "unit": "h"}, {"measurement": "clinically relevant systemic exposure (concentration)", "setting": "[10]; based on the Cmax of 22.2 ng/mL", "value": "≈ 0.04 μM"}, {"measurement": "intrasubject variability", "setting": "[10]", "value": "more than 30%"}, {"measurement": "geo‐mean AUC0‐24", "setting": "[10]; trametinib 2 mg in the absence of COC", "value": 370, "unit": "ng·h/mL"}, {"measurement": "CYP2A6 inhibition (in words)", "setting": "CYP2A6", "value": "no inhibitory activity"}]}]}
